{"source": "patent US20250002569A1", "about": "“METHOD OF TREATING OSTEOARTHRITIS” (AlaMab Therapeutics, Inc., priority 2023, published 2025)", "type_in_all_cases": "in vivo, Sprague Dawley (SD) rats", "key": {"[1]": {"test_system": "rats with osteoarthritis induced by pMMx+ACLT", "assay": "Gait score (Coderre scoring method) in pMMx+ACLT osteoarthritis rat model", "conditions": "for Gait Score: Duloxetine 5 mg/kg i.g. daily", "method": "(§1) After acclimation of the animals, the animals were evaluated for normal pain threshold (on Day 1 of study) using the Von Frey, or Up-Down, method, and for biped balance degree of the knee joint on the surgical side (right hind limb) using a biped balance tester. The rats were then anesthetized with isoflurane, and the knee joints were depilated and disinfected. Osteoarthritis was induced in the animals by partial medial meniscectomy in combination with anterior cruciate ligament transection (pMMx+ACLT). Briefly, the skin and joint cavity close to the inner side of the right knee were cut, the knee joint was placed in the maximum flexion state, with the joint cavity exposed and the medial meniscus separated. The medial ⅓ meniscus and the anterior cruciate ligament were then cut-off. For the control animal group (no osteoarthritis induction), only the skin was cut to open the joint cavity without removing the ligament or meniscus. The date of the osteoarthritis model establishment was Day 8 of the study.\n(§2) One week after model establishment (Day 15 of study), before administration of treatment, the basic pain threshold of plantar pain was evaluated on the operation side for each of the animals, and the osteoarthritis model rats were evenly divided according to the basic Von Frey reaction value (2-5), with 8 animals used for each of the osteoarthritis model group (vehicle-treatment), the positive control drug (duloxetine) 5 mg/kg group, and the ALMB-0166 15 mg/kg, 25 mg/kg, and 50 mg/kg dose groups. After grouping, drug treatment was started on Day 15 of study. For each of the ALMB-0166-treated test groups, the treatment was administered intravenously, once a week, with four total doses (on Day 15, 22, 29, and 36 of the study, corresponding to day 1, 8, 15 and 22 of treatment). For the positive control group, duloxetine was administered orally every day until the end of the experimental cycle.\n(§3) Weight measurements were taken for animals in each test group on Days 15, 22, 29 and 36 of the study. On Days 16, 23, 30 and 37, the gait of each animal, the change of plantar pain threshold induced by knee joint lesions on the operative side, and the weight bearing of both lower limbs were measured for each animal was scored on according to the Coderre scoring method, the Up-Down method, and bipedal balance pain testing, respectively.\nCoderre gait method was used to measure the gait of each animal. The gait was measured according to the following scoring: standard (Grade 0: normal walking, 0 point); Level 1 (sight claudication, slight bending below knee joint, 2 points); Level 2 (claudication, the affected limb can touch the ground, 4 points); Level 3 (severe claudication, the affected limb leaves the ground and walk on three feet, 6 points).\n(§4) The gait scoring, plantar pain threshold, and weight bearing differential were expressed as the mean and […] (Mean±SD). The data between model group and administration group at multiple time points were analyzed by repeated measures analysis of variance method with SPSS Statistics 21 software, and Tamhane's method for subsequent analysis. P<0.05 was considered to have a significant difference, and p<0.01 was considered to have a very significant difference. The final data were plotted with GraphPad Prism 6 software."}, "[2]": {"test_system": "rats with osteoarthritis induced by pMMx+ACLT", "assay": "Mechanical pain threshold of plantar pain (Von Frey Up-Down method, 50% MWT) in pMMx+ACLT osteoarthritis rat model", "conditions": "for Percent Increase in 50% MWT (g) (as compared to Day 15 of study) / Pain threshold of plantar pain, 50% MWT: Duloxetine 5 mg/kg i.g. daily", "method": "as §1, §2, §3\nThe Up-Down method was used to measure the plantar pain threshold. Following the Up-Down methos, each rat was placed in a transparent enclosure with a sieve-shaped metal plate at the bottom, and the animal was allowed to adapt to about 15 minutes until the autonomous exploration and grooming activities stop. Von Frey probes were then used to vertically stimulate the middle of the hind plantar of each rat to make the plantar slightly s-shaped for 5 second, and the paw withdrawal response was observed. A positive response was noted if the paw was sharply withdrawn or there was flinching upon removal. The interval between each measurement was about 10 sec. If no response was observed after probe stimulation, it was regarded as a negative reaction.\nFor scoring the mechanical pain, the rats were stimulated with a series of Von Frey probes of 0.4, 0.6, 1, 1.4, 2, 4, 6, 8, 10, and 15 g). Testing was start with a 2 g probe, and if a positive reaction occurred, it was recorded as an “X,” and testing was continued with a 1.4 g probe. […] Testing was continued accordingly, using the probes successively without circumvention. […] If a positive reaction was induced even by the 0.4 g probe, the 50% MWT was recorded as 0.4 g. […]"}, "[3]": {"test_system": "rats with osteoarthritis induced by pMMx+ACLT", "assay": "Weight bearing difference of hind legs (biped balance measurement) in pMMx+ACLT osteoarthritis rat model", "conditions": "for Weight bearing difference of hind legs: Duloxetine 5 mg/kg i.g. daily", "method": "as §1, §2, §3\nA bipedal balance pain tester was used to evaluate the weight bearing of both lower limbs for each animal. Each animal was placed in the plexiglass cover of the biped balance pain instrument. After the animal completed their exploratory behavior, the forelimbs of the rats laid on the incline of the device, and the hind limbs stood on the left and right balance plates respectively. […] The measurements were repeated three times for each animal, with an interval of 10 seconds between each replicate measurement.\nas §4"}, "[4]": {"assay": "Weight of rats with osteoarthritis induced by pMMx+ACLT", "conditions": "Duloxetine 5 mg/kg i.g. daily", "method": "Male Sprague Dawley (SD) rats (Specific Pathogen Free grade; Shanghai Slac Laboratory Animal Co. Ltd) were obtained in the study. Each rat was weight at the start of treatment, with the average weight ranging from 200-220 grams. Upon arrival at the test facility, the animals were housed at five rats per cage and acclimated for five to seven days prior to initiation of treatment.\nas §1, §2, §3"}, "[5]": {"conditions": "Day 1 (before model establishment)"}, "[6]": {"conditions": "duloxetine 5 mg/kg, multivariate test, p<0.05"}}, "note": "Counter-ions that a name gives are not always drawn."}
{"smiles": "CNCC[C@H](Oc1cccc2ccccc12)c1cccs1", "note": "[Duloxetine, Duloxetine hydrochloride]", "values": [{"measurement": "Gait Score", "setting": "[1]; Day 16 of study", "value": "3.5 ± 0.9"}, {"measurement": "Gait Score", "setting": "[1]; Day 23 of study", "value": "3.0 ± 1.1"}, {"measurement": "Gait Score", "setting": "[1]; Day 30 of study", "value": "1.3 ± 1.0"}, {"measurement": "Gait Score", "setting": "[1]; Day 37 of study", "value": "0.0 ± 0.0"}, {"measurement": "Gait score compared to the vehicle-treated group", "setting": "[1]; duloxetine 5 mg/kg, multivariate test, p>0.05", "value": "no significant different"}, {"measurement": "Percent Increase in 50% MWT (g) (as compared to Day 15 of study)", "setting": "[2]; Day 1", "value": 0.0, "unit": "%"}, {"measurement": "Pain threshold of plantar pain, 50% MWT", "setting": "[2]; [5]", "value": "15.00 ± 0.00", "unit": "g"}, {"measurement": "Percent Increase in 50% MWT (g) (as compared to Day 15 of study)", "setting": "[2]; Day 15", "value": 0.7, "unit": "%"}, {"measurement": "Pain threshold of plantar pain, 50% MWT", "setting": "[2]; Day 15 (before administration of treatment)", "value": "3.23 ± 0.64", "unit": "g"}, {"measurement": "Pain threshold of plantar pain, 50% MWT", "setting": "[2]; Day 16", "value": "5.27 ± 2.72", "unit": "g"}, {"measurement": "Percent Increase in 50% MWT (g) (as compared to Day 15 of study)", "setting": "[2]; Day 16", "value": 52.9, "unit": "%"}, {"measurement": "Pain threshold of plantar pain, 50% MWT", "setting": "[2]; Day 23", "value": "7.11 ± 2.45", "unit": "g"}, {"measurement": "Percent Increase in 50% MWT (g) (as compared to Day 15 of study)", "setting": "[2]; Day 23", "value": 90.3, "unit": "%"}, {"measurement": "Pain threshold of plantar pain, 50% MWT", "setting": "[2]; Day 29", "value": "8.47 ± 4.92", "unit": "g"}, {"measurement": "Percent Increase in 50% MWT (g) (as compared to Day 15 of study)", "setting": "[2]; Day 30", "value": 108.2, "unit": "%"}, {"measurement": "Pain threshold of plantar pain, 50% MWT", "setting": "[2]; Day 37", "value": "9.84 ± 4.65", "unit": "g"}, {"measurement": "Percent Increase in 50% MWT (g) (as compared to Day 15 of study)", "setting": "[2]; Day 37", "value": 70.9, "unit": "%"}, {"measurement": "Pain threshold of plantar pain over time compared with osteoarthritis model (vehicle-treated) group", "setting": "[2]; [6]", "value": "significant increase"}, {"measurement": "Pain threshold of plantar pain at each time point", "setting": "[2]; duloxetine dosage group, Days 23, 30 and 37 of the study, p<0.05", "value": "significantly increased"}, {"measurement": "Weight bearing difference of hind legs", "setting": "[3]; [5]", "value": "2.96 ± 1.88", "unit": "g"}, {"measurement": "Weight bearing difference of hind legs", "setting": "[3]; Day 15 (treatment start)", "value": "104.28 ± 11.40", "unit": "g"}, {"measurement": "Weight bearing difference of hind legs", "setting": "[3]; Day 16", "value": "95.60 ± 2.27", "unit": "g"}, {"measurement": "Weight bearing difference of hind legs", "setting": "[3]; Day 23", "value": "80.91 ± 1.98", "unit": "g"}, {"measurement": "Weight bearing difference of hind legs", "setting": "[3]; Day 30", "value": "56.80 ± 4.06", "unit": "g"}, {"measurement": "Weight bearing difference of hind legs", "setting": "[3]; Day 37", "value": "51.12 ± 4.81", "unit": "g"}, {"measurement": "Decrease in hind limb weight bearing difference over time compared with osteoarthritis model (vehicle-treated) group", "setting": "[3]; [6]", "value": "significant"}, {"measurement": "Hind limb weight bearing difference at each time point", "setting": "[3]; duloxetine test group, Days 16, 23, 30 and 37, p<0.01", "value": "significant decrease"}, {"measurement": "Weight", "setting": "[4]; Day 1 of study (before treatment)", "value": "223.8 ± 7.8", "unit": "g"}, {"measurement": "Weight", "setting": "[4]; Day 8 of study (model establishment, before treatment)", "value": "280.1 ± 11.2", "unit": "g"}, {"measurement": "Weight", "setting": "[4]; Day 15 of study (treatment start)", "value": "317.8 ± 20.4", "unit": "g"}, {"measurement": "Weight", "setting": "[4]; Day 22 of study", "value": "353.9 ± 23.0", "unit": "g"}, {"measurement": "Weight", "setting": "[4]; Day 29 of study", "value": "389.9 ± 26.2", "unit": "g"}, {"measurement": "Weight", "setting": "[4]; Day 36 of study", "value": "423.0 ± 30.0", "unit": "g"}]}
